Active and inactive are the calls of the source.
How the values were obtained:
[1] = biological target: Eukaryotic translation initiation factor 4E (Mus musculus, UniProt P63073); assay: blockers of eIF4G binding by eIF4E – biochemical, TR-FRET, dose response (AID 855); format: functional;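 note: potency for disrupting eIF4E binding to eIF4GI seen as loss of FRET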
[2] = biological target: T1, Mannose-6-phosphate isomerase (Homo sapiens, UniProt P34949); assay: MPI inhibition at elevated mannose 6-phosphate – biochemical, fluorescence intensity, high mannose 6-phosphate, primary screen (AID 1220)
T1 sequence (P34949 whole entry): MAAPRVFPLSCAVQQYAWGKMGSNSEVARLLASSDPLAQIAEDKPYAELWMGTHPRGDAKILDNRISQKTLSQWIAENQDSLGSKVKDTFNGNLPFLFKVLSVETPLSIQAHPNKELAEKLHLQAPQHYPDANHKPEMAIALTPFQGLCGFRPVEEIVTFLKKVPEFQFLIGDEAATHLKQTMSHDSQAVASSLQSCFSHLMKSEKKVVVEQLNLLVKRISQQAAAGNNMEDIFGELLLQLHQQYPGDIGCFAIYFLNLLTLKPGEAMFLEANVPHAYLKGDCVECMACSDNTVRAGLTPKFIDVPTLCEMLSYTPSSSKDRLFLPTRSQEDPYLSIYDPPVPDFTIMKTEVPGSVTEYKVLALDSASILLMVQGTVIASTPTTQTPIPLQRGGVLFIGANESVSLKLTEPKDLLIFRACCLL

[3] = biological target: Large T antigen (Simian virus 40, UniProt P03070); format: functional, Betapolyomavirus macacae;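 note: Confirmatory-stage PubChem screen for compounds that inhibit SV40 T antigen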
Chain of Large T antigen (P03070 whole entry): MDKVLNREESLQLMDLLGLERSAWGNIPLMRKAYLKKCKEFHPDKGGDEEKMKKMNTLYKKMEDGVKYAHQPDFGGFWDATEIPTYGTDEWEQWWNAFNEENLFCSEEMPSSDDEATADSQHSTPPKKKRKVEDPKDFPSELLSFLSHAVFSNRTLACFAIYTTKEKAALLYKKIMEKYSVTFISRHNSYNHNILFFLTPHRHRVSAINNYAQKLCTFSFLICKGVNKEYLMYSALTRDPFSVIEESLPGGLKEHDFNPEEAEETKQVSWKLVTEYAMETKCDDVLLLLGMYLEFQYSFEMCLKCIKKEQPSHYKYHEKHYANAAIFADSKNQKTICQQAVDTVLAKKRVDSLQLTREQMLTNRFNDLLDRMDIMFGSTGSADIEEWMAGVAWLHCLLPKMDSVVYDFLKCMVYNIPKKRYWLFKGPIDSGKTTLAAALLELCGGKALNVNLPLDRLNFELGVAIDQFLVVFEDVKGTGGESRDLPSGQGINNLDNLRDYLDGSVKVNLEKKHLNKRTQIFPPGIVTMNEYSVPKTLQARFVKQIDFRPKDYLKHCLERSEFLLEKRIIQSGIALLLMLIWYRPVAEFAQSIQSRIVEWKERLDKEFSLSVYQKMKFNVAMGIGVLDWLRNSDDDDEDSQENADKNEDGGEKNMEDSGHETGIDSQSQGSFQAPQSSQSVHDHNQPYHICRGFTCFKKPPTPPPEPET

[4] = biological target: Procathepsin L (Homo sapiens, UniProt P07711)
Chain of Procathepsin L (P07711 whole entry): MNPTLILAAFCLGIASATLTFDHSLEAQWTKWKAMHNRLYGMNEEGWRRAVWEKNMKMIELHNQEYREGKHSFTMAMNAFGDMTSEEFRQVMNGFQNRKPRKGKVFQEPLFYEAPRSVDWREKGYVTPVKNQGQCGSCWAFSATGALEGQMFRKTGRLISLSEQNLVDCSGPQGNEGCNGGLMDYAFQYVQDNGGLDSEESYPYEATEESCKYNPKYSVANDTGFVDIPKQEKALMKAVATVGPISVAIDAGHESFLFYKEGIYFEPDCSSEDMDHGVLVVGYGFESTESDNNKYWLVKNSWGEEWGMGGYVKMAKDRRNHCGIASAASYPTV

[5] = biological target: T1, Mannose-6-phosphate isomerase; assay: MPI enzyme activity inhibition – biochemical, fluorescence intensity, coupled assay, primary screen (AID 1209)
[6] = biological target: T2, Insulin-degrading enzyme (Homo sapiens, UniProt P14735); assay: Dose Response: Fluorescence polarization-based cell-based high throughput dose response assay for inhibitors of insulin-degrading enzyme (IDE). [Related pubchem assays: 434962 (Primary screen (IDE inhibitors in singlicate)), 449730 (Counterscreen (Cytotoxicity in triplicate)), 435028 (Confirmation (IDE inhibitors in triplicate)), 434984 (Summary …; format: functional
T2 sequence (P14735 whole entry): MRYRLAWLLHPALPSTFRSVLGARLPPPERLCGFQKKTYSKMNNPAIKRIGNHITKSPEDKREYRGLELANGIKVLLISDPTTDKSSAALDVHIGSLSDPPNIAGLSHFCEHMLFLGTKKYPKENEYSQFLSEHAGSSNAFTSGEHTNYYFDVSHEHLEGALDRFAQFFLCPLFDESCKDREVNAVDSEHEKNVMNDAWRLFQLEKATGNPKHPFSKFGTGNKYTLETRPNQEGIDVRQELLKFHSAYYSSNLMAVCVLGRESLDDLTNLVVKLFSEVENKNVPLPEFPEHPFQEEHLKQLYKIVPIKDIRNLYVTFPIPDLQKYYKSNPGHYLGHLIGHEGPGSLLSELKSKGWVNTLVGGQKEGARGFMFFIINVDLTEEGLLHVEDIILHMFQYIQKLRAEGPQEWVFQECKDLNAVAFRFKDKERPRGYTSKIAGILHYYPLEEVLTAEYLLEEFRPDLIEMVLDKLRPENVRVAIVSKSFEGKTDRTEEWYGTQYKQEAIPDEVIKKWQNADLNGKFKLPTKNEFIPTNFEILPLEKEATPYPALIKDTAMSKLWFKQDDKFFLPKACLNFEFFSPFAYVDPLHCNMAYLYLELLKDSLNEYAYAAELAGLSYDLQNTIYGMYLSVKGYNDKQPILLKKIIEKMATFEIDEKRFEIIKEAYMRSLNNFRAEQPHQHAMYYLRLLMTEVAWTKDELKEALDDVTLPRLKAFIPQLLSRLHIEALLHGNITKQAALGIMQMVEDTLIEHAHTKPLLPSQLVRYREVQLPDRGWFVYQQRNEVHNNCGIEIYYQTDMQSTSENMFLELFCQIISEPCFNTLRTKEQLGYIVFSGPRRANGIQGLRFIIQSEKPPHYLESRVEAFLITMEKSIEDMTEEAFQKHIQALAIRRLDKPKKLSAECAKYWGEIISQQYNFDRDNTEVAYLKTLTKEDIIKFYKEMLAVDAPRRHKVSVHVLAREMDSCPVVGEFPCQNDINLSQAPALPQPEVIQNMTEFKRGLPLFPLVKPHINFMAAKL

[7] = Trypanosoma cruzi growth suppression in host cells – NIH3T3 host cells, beta-gal luminescence, confirmation (AID 2044); format: functional, cell-based;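 note: intracellular parasites grown in NIH/3T3 mouse fibroblasts as host cells; luminescent beta-galactosidase reporter signal from transgenic T. cruzi replicating inside host cells; inhibitors lower the luminescence signal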
[8] = biological target: T3, Aspartyl aminopeptidase (Plasmodium falciparum 3D7, UniProt Q8I2J3)
T3 sequence (Q8I2J3 whole entry): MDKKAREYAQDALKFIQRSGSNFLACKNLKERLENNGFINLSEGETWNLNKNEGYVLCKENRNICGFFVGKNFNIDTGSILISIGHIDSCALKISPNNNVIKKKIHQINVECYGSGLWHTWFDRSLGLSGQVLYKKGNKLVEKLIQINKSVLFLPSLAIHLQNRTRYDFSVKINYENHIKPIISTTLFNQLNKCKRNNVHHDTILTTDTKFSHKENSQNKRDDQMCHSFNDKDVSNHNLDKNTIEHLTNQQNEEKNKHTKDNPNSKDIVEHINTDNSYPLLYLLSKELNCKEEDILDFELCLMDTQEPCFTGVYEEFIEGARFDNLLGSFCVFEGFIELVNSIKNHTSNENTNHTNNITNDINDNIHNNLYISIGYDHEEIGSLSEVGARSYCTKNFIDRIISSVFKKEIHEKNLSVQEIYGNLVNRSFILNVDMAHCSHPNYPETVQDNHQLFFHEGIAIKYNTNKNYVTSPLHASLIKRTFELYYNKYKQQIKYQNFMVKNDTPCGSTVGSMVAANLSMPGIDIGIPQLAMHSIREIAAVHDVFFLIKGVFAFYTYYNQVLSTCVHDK

[9] = biological target: T4, Phosphomannomutase 2 (Homo sapiens, UniProt O15305); assay: Counter screen SAR assay for PMM2 inhibitors via a fluorescence intensity assay. [Related pubchem assays (depositor defined):AID1545, AID1574]
T4 sequence (O15305 whole entry): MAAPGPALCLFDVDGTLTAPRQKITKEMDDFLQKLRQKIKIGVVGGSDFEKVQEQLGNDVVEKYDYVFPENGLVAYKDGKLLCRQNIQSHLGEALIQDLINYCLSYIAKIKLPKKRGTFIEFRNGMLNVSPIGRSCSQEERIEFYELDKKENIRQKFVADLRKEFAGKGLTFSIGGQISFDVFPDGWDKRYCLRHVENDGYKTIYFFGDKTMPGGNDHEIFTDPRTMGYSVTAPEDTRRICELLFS

[10] = NIH3T3 cell viability loss – ATP luminescence, mouse fibroblasts, counter-screen, dose response (AID 2010); format: functional, cell-based;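 note: cells exposed to compound for about 90 hours before reading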
[11] = Counterscreen for IDE inhibitors: Luminescence-based cell-based high throughput dose response assay to identify compounds that are cytotoxic to HEK cells. [Related pubchem assays: 434962 (Primary screen (IDE inhibitors in singlicate)), 449730 (Counterscreen (Cytotoxicity in triplicate)), 435028 (Confirmation (IDE inhibitors in triplicate)) …; format: functional; conditions: HEK293
[12] = biological target: Phosphoethanolamine/phosphocholine phosphatase (Homo sapiens, UniProt Q8TCT1); assay: SAR assay for compounds that inhibit PHOSPHO1. [Related pubchem assays (depositor defined):AID1545, AID1565, AID1574]
Chain of Phosphoethanolamine/phosphocholine phosphatase (Q8TCT1 whole entry): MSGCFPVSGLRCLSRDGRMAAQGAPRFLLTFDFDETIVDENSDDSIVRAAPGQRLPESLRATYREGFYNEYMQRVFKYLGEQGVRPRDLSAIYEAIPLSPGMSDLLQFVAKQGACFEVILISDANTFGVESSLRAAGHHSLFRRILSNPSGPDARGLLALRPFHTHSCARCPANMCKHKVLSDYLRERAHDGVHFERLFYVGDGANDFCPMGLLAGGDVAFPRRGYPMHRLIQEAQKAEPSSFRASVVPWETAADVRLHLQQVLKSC

[13] = biological target: T1, Mannose-6-phosphate isomerase; assay: phosphomannose isomerase inhibition – biochemical, fluorescence intensity, confirmation (AID 1535)
[14] = biological target: T5, Alkaline phosphatase, tissue-nonspecific isozyme (Homo sapiens, UniProt P05186); assay: potency against alkaline phosphatase TNAP – biochemical, luminescent, dose response, SAR follow-up (AID 1056)
T5 sequence (P05186 whole entry): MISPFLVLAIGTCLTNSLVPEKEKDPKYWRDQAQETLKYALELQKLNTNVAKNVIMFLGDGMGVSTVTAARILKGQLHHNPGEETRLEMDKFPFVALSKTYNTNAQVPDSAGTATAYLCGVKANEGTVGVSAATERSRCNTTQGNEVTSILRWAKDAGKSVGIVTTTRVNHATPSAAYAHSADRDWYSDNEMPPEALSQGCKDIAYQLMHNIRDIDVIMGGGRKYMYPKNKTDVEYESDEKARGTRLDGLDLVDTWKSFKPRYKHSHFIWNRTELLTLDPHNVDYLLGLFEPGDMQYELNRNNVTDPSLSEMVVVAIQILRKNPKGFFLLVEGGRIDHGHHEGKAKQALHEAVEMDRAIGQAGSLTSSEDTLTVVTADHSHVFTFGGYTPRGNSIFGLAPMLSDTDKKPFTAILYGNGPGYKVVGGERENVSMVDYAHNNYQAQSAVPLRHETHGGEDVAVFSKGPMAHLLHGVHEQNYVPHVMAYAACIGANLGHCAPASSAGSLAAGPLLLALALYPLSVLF

[15] = biological target: NADPH oxidase 1 (Homo sapiens, UniProt Q9Y5S8); format: functional, cell-based;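 note: Cell-based assay with luminescence read-out, IC50 derived from inhibitor dose-response curves; intracellular ROS from endogenous NOX1 in intact HT29 colon cancer cells; potency of inhibitors that lower the ROS luminescence signal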
Chain of NADPH oxidase 1 (Q9Y5S8 whole entry): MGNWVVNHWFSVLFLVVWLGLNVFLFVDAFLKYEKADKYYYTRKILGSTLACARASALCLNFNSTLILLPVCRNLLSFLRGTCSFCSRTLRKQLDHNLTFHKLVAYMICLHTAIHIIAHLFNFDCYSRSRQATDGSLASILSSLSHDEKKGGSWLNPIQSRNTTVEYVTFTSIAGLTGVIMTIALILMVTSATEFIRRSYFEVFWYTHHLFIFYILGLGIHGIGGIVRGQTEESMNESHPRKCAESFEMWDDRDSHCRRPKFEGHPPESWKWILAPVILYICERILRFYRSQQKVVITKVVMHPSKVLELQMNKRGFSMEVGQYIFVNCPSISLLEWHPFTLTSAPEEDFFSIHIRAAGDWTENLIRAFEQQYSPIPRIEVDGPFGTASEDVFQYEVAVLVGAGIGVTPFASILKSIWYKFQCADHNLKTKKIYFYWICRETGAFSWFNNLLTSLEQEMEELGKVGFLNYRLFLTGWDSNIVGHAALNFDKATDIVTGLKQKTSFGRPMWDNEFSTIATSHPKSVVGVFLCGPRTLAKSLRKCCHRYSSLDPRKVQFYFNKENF

[16] = biological target: T6, Estrogen receptor beta (Homo sapiens, UniProt Q92731);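 note: recombinant ER-beta bound to coactivator SRC1 peptide in presence of estradiol agonist; inhibitors block coactivator peptide binding and lower the FRET signal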
T6 sequence (Q92731 whole entry): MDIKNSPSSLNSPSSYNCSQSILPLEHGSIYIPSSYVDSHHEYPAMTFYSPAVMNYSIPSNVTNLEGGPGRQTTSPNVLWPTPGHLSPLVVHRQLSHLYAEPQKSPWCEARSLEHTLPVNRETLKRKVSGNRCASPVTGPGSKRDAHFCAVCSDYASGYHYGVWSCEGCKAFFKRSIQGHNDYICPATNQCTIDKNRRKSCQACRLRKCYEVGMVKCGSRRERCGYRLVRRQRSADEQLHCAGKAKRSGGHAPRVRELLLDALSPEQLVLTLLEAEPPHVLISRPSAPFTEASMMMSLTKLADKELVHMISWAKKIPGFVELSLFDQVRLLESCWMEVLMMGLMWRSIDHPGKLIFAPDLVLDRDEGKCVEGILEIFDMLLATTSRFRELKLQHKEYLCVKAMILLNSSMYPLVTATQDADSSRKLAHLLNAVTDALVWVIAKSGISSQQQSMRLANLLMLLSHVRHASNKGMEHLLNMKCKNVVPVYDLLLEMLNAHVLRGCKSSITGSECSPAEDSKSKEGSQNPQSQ

[17] = biological target: T7, Replicative DNA helicase DnaB (Mycobacterium tuberculosis, UniProt P9WMR3); assay: DnaB intein splicing inhibitors, dose response, biochemical, cell-free fluorescence (AID 449749); format: functional
T7 sequence (P9WMR3 whole entry): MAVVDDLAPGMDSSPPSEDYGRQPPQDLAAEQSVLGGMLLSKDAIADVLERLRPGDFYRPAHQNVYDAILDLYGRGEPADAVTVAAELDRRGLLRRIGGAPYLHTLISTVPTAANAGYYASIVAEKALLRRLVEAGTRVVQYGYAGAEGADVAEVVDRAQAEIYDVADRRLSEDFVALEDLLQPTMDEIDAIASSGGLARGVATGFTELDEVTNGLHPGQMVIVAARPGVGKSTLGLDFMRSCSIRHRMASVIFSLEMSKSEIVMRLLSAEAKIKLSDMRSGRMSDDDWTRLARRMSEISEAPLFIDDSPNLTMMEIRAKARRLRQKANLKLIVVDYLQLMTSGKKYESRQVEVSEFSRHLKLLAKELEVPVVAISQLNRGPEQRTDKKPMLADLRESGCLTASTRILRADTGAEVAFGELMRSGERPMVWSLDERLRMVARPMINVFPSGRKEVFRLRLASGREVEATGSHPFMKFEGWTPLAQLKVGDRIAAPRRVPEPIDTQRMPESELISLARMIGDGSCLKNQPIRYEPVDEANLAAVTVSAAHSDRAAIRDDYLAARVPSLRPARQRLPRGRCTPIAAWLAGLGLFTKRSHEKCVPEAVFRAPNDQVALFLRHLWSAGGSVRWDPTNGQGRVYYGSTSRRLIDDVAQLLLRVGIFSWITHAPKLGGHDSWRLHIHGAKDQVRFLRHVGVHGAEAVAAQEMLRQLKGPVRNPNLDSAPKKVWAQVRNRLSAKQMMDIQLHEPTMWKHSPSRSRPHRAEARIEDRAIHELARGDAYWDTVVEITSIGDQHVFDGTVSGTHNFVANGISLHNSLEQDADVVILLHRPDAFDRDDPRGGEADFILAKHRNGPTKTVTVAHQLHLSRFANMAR

[18] = biological target: T8, Protein RecA (Mycobacterium tuberculosis, UniProt P9WHJ3); assay: Fluorescence Cell-Free Homogeneous Dose Retest to Identify Inhibitors of RecA-Intein Splicing Activity. [Related pubchem assays (depositor defined):AID2097, AID2223, AID489010, AID492950]; format: functional
T8 sequence (P9WHJ3 whole entry): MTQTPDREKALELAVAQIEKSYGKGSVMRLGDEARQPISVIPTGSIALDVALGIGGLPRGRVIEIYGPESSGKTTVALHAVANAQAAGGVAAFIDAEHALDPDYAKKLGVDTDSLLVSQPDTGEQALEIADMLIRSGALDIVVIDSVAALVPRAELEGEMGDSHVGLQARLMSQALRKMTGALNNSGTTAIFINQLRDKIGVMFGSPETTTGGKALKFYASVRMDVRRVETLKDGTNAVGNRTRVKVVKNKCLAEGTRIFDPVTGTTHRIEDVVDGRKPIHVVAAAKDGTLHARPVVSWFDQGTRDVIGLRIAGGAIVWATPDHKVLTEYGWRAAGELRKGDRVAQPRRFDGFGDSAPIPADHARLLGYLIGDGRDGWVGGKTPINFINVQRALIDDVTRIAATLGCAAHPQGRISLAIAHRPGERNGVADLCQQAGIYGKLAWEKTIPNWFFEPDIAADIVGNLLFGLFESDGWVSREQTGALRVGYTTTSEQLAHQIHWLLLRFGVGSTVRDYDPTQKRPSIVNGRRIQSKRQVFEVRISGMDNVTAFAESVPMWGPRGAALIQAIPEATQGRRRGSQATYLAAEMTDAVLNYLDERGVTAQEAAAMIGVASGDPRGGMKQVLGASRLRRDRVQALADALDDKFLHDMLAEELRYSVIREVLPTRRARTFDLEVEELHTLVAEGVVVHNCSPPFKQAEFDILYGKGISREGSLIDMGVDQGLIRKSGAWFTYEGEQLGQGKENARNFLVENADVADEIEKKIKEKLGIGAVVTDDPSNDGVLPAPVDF

[19] = biological target: T6, Estrogen receptor beta; assay: blockers of SRC-3 recruitment to ERβ – biochemical, ELISA, streptavidin-HRP readout, orthogonal assay, confirmation (AID 1060)

Chain of Eukaryotic translation initiation factor 4E (P63073 whole entry): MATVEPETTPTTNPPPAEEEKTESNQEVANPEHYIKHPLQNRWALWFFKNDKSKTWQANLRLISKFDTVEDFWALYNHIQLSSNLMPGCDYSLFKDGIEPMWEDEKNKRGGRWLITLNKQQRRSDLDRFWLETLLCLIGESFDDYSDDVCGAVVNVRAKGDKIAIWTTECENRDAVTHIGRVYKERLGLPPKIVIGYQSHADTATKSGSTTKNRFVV

SMILES: Cc1ccc(-n2sc3ccccc3c2=O)cc1S(=O)(=O)N1CCCCC1
- IC50 [1]: 1.93 µM (active)
- IC50 [2]: > 50 µM (not active)
- IC50 [3]: 26.1 µM (active)
- IC50 [4]: > 59.6 µM (not active)
- IC50 [5]: > 50 µM (not active)
- IC50 [6]: 4.05 µM (active)
- EC50 [7]: 0.89 µM (active)
- IC50 [8]: 4.28 µM (active)
- IC50 [9]: 14.6 µM (active)
- EC50 [10]: > 60 µM (not active)
- IC50 [11]: 10.5 µM (not active)
- IC50 [12]: 1.84 µM (inactive)
- IC50 [13]: 3.06 µM (active)
- IC50 [14]: > 100 µM (inactive)

SMILES: c1ccc(-c2nc(-c3ccccc3)c(-c3ccccc3)o2)cc1
- IC50 [15]: > 17 µM (not active)

SMILES: CC1(N2CCOCC2)CC2(O)C(=[N+]1[O-])CCc1nonc12 (centres undefined)
- IC50 [16]: 12 µM (active)
- AC50 [17]: > 380 µM (inactive)
- EC50 [18]: 11.9 µM (active)
- IC50 [19]: 0.256 µM (not active)
